Laboratory results from US20220133957A1, “Sclerostin Inhibitors That Promote Bone Morphogenetic Protein Expression” (Emory University, priority 2019, published 2022).

Key:
[1] = tested on: AXIN2, Wnt1 and SOST mRNA; assay: BMP-2-induced marker gene expression in Wnt pathway (mRNA levels) in MC3T3 cells; type: cell-based; details: 10 uM compound, BMP-2 35 ng/ml, MC3T3 cells treated for 48 hrs
Sprague-Dawley rats = assay: in vivo subcutaneous ectopic mineralization model (collagen sponge implant); set-up: species or system rat; details: 4 weeks; for dose-response of ectopic mineralization: 10, 25, 50, 75 and 100 mM on collagen sponge; for de novo ectopic mineralization: standalone agent on plain collagen sponge, 0-100 mM, subcutaneous on chest
Method: Compound was delivered in 100 uL at indicated concentration for each collagen disc in DMSO solvent before subcutaneous implantation.
Sclerostin inhibitors were tested in a challenging in vivo subcutaneous ectopic mineralization model. Other than the osteoinductive BMPs, few if any proteins or small molecules are capable of inducing de novo ectopic mineralization in this rat model. Sclerostin inhibitors were loaded individually as standalone agents onto a plain collagen sponge (DSM) at 0, 10, 25, 50, 75, and 100 mM and then surgically implanted subcutaneously on the chest of 6-week-old male Sprague-Dawley rats for 4 weeks. A positive control of 10 μg of recombinant BMP-2 was also tested.

[2] = tested on: rabbit posterolateral spine fusion; assay: rabbit model of posterolateral lumbar arthrodesis (spinal fusion); type: in vivo; details: for spinal fusion rates compared to controls: 300 mM; for spinal fusion rates compared to controls / spines successfully fused: 6 weeks; for spines successfully fused: 500 mM as standalone drug on plain collagen sponge without ICBG; for posterolateral spine fusion rate: 500 mM in combination with autologous iliac crest bone graft (ICBG), 6 weeks after arthrodesis
Method: Coronal μCT reconstructions of rabbit spines 6 weeks following posterolateral spine arthrodesis are shown.
C07 and VA1 were assessed for their ability to enhance spinal fusion rates in vivo using a validated rabbit model of posterolateral lumbar arthrodesis. Both were tested as standalone osteoinductive drugs, as well as in combination with autologous ICBG, using two separate doses (300 and 500 mM). All rabbits were euthanized six weeks following arthrodesis surgery and the spine fusion masses were assessed by both plain radiography and μCT. Successful fusion, defined as continuous bridging bone between the TPs, was assessed by two spine surgeons.

[3] = molecular target: T1, sclerostin and LRP5 interaction (Homo sapiens, UniProt Q9BQB4); assay: in vitro binding assay with purified recombinant sclerostin and LRP5 proteins (125-Iodine-labeled sclerostin, biotin-labeled LRP5 pull-down); details: 0.1 ug biotin-labeled LRP5, 20,000 cpm 125-Iodine-labeled sclerostin, 30 min at room temperature
T1 sequence (Q9BQB4 24-213): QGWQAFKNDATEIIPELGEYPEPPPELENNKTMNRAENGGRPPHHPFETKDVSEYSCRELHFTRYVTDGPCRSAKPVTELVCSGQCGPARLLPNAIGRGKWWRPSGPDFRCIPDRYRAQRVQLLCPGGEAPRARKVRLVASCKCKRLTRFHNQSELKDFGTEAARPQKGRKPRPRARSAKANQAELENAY
Method: (§1) To ensure that sclerostin was in fact being expressed in cell lines, we tested C2C12, MSC and MC3T3 cell lines. Western blots were performed using anti-sclerostin mAbs both with and without BMP-2 treatment. […] Sclerostin and LRP5 was labeled with 125-Iodine and biotin, respectively. Constant amounts of biotin-labeled LRP5 (0.1 ug) and 125-Iodine-labeled sclerostin (20,000 cpm) were incubated with or without varying concentrations of unlabeled-sclerostin+/−various concentrations of compounds for 30 min at room temperature in a 100 uL assay buffer. Biotin-labeled LRP5 was pulled down with a 20 uL slurry of neutravidin-agarose beads. The counts associated with pellets were counted in a Beckman 4000 Gamma counter. Unlabeled sclerostin competed off about 90% of labeled-sclerostin.

[4] = molecular target: purified recombinant LRP5; assay: radioligand competition pull-down: 125I-sclerostin and biotin-LRP5, neutravidin-agarose beads, gamma counting; competitor unlabeled sclerostin
Sclerostin protein = assay: Western blots using anti-sclerostin mAbs with and without BMP-2 treatment; type: cell-based; details: C2C12, MSC and MC3T3 cell lines
Method: as §1

| Molecule | BMP-induced mRNA levels of AXIN2, Wnt1 and SOST compared to BMP-2 alone control [1] | dose-response of ectopic mineralization (Sprague-Dawley rats) | de novo ectopic mineralization (Sprague-Dawley rats) | spinal fusion rates compared to controls [2] | spines successfully fused [2] [%] | posterolateral spine fusion rate [2] [%] | other results |
| --- | --- | --- | --- | --- | --- | --- | --- |
| N#Cc1ccc(NCCNc2ncccn2)nc1 [Compound C07, 6-((2-(pyrimidin-2-ylamino)ethyl)amino)nicotinonitrile] | elevation | clearer dose-response | significant de novo ectopic mineralization | Neither VA1 nor C07 at 300 mM showed any increase | 33 | 85 | – |
| Unlabeled sclerostin: purified recombinant sclerostin protein, unlabeled competitor in the LRP5 binding assay | – | – | – | – | – | – | labeled-sclerostin competed off [3]: about 90% |
| CCCC(CCC)C(=O)O [VA1, valproic acid] | elevation | lack of a clear dose-response | significant de novo ectopic mineralization | Neither VA1 nor C07 at 300 mM showed any increase | 17 | 80 | – |
| purified recombinant sclerostin (ligand) | – | – | – | – | – | – | percent of labeled sclerostin competed off [4]: 90% |
| BMP2: bone morphogenetic protein 2, growth factor used to treat cells (protein, listed as Homo sapiens) MVAGTRCLLALLLPQVLLGGAAGLVPELGRRKFAAASSGRPSSQPSDEVLSEFELRLLSMFGLKQRPTPSRDAVVPPYMLDLYRRHSGQPGSPAPDHRLERAASRANTVRSFHHEESLEELPETSGKTTRRFFFNLSSIPTEEFITSAELQVFREQMQDALGNNSSFHHRINIYEIIKPATANSKFPVTRLLDTRLVNQNASRWESFDVTPAVMRWTAQGHANHGFVVEVAHLEEKQGVSKRHVRISRSLHQDEHSWSQIRPLLVTFGHDGKGHPLHKREKRQAKHKQRKRLKSSCKRHPLYVDFSDVGWNDWIVAPPGYHAFYCHGECPFPLADHLNSTNHAIVQTLVNSVNSKIPKACCVPTELSAISMLYLDENEKVVLKNYQDMVVEGCGCR | – | – | – | – | – | – | Sclerostin protein levels (Sclerostin protein): increased protein levels |
